The target in assay [1] is T1, GT1a D168A NS3/4A protease (UniProt P27958, C1185S/D1194A, species not given).
T1 construct: Ki (nM) GT1a D168A NS3/4A Protease
It is filed as biochemical, Hepatitis C virus. As to conditions: read-out: Ki (nM) GT1a D168A NS3/4A Protease. On the procedure: (§1) For each assay, 2 nM of NS3/4A protease (GT1, D168A and GT3) was pre-incubated at room temperature for 1 h with increasing concentration of inhibitors in assay buffer [50 mM Tris, 5% glycerol, 10 mM DTT, 0.6 mM LDAO, and 4% dimethyl sulfoxide]. Inhibition assays were performed in nonbinding surface 96-well black half-area plates (Corning) in a reaction volume of 60 μt. […] Three independent data sets were collected for each inhibitor with each protease construct.
(§2) For each assay, 2 nM of NS3/4A protease (GT1a and D168A) was pre-incubated at room temperature for 1 h with increasing concentration of inhibitors in assay buffer (50 mM Tris, 5% glycerol, 10 mM DTT, 0.6 mM LDAO, and 4% dimethyl sulfoxide, pH 7.5). Inhibition assays were performed in non-binding surface 96-well black half-area plates (Corning) in a reaction volume of 60 μL. […] Three independent data sets were collected for each inhibitor with each protease construct.
(§3) For each assay, 2 nM of NS3/4A protease (GT1a, R155K and D168A) was pre-incubated at room temperature for 1 h with increasing concentration of inhibitors in assay buffer (50 mM Tris, 5% glycerol, 10 mM DTT, 0.6 mM LDAO, and 4% dimethyl sulfoxide, pH 7.5). Inhibition assays were performed in non-binding surface 96-well black half-area plates (Corning) in a reaction volume of 60 μL. […] Three independent data sets were collected for each inhibitor with each protease construct. […] Gibbs free energy of binding was calculated using the following equation: ΔG=RTlnKi

The target in assay [2] is GT1a D168A NS3/4A protease. The format is biochemical, Hepatitis C virus. Particulars: Table 3; Ki D168A relative to GT1a WT. On the procedure: as §1, §2, §3
The target in assay [3] is T2, wild-type GT1a NS3/4A protease (UniProt P27958, C1185S, species not given).
T2 construct: Ki (nM) GT1a WT NS3/4A Protease
The format is biochemical, Hepatitis C virus. Particulars: read-out: Ki (nM) GT1a WT NS3/4A Protease. On the procedure:
as §1, §2, §3

Another assay deals with T3, GT3a NS3/4A protease (Hepatitis C virus genotype 3a, UniProt Q81495).
T3 construct: drug-resistant variant D168A, and GT3a NS3/4A protease; made in house; host or cells: Escherichia coli BL21(DE3)
Briefly: biochemical. As to conditions: for Ki (Fold change) GT3a NS3/4A Protease: Ki GT3a relative to GT1a WT. The procedure: as §1

For assay [4], the system named is wild-type HCV replicon in Huh7 cells. Briefly: Cell-based drug susceptibility (replicon) assay, wild-type. Particulars: Hepatitis C virus, read-out: Replicon EC50 (nM) WT. The procedure:
(§4) Mutations (R155K, A516T, D168A and D168V) were constructed by site-directed mutagenesis using a Con1 (genotype 1b) luciferase reporter replicon containing the H77 (genotype 1a) NS3 sequence.
(§5) Replicon RNA of each protease variant was introduced into Huh7 cells by electroporation. Replication was then assessed in the presence of increasing concentrations of protease inhibitors by measuring luciferase activity (relative light units) 96 h after electroporation.
(§6) Mutations (R155K, D168A and A156T) were constructed by site-directed mutagenesis using a Con1 (genotype 1b) luciferase reporter replicon containing the H77 (genotype 1a) NS3 sequence.^6 Replicon RNA of each protease variant was introduced into Huh7 cells by electroporation. Replication was then assessed in the presence of increasing concentrations of protease inhibitors by measuring luciferase activity (relative light units) 96 h after electroporation.
Background: In antiviral work, replicon cells carry a viral genome segment that copies itself.

In assay [5] the test system is HCV replicon A156T variant in Huh7 cells. As to the kind of experiment: microbe, parasite or virus in culture. The format is cell-based, Hepatitis C virus. Particulars: for EC50: Hepatitis C virus; for Replicon EC50 (Fold change) A156T: Table 4, relative to WT replicon. The procedure: as §4, §5, §6
Assay [6] has as its system HCV replicon D168A variant in Huh7 cells. Briefly: microbe, parasite or virus in culture. It is filed as cell-based, Hepatitis C virus. Particulars: for EC50: Hepatitis C virus; for Replicon EC50 (Fold change) D168A: Table 4, relative to WT replicon. The procedure: as §4, §5, §6
The test system of assay [7] is HCV replicon R155K variant in Huh7 cells. Briefly: microbe, parasite or virus in culture. It is filed as cell-based, Hepatitis C virus. As to conditions: for EC50: Hepatitis C virus; for Replicon EC50 (Fold change) R155K: Table 4, relative to WT replicon. The procedure: as §4, §5, §6
Assay [8] concerns HCV replicon D168V variant in Huh7 cells. Briefly: microbe, parasite or virus in culture. As to conditions: for EC50: Hepatitis C virus; for Replicon EC50 (Fold change) D168V: Table 4, relative to WT replicon. The format is cell-based, Hepatitis C virus. On the procedure: as §4
Replicon RNA of each protease variant was introduced into Huh7 cells by electroporation. Replication was then assessed in the presence of increasing concentrations of protease inhibitors by measuring luciferase activity (relative light units) 96 h after electroporation. […]

Where [9] appears, read: Huh-7, 96 h, Table 2, Huh7 cells, luciferase 96 h.
The mark [10] stands for this setting: Huh-7, 96 h, read-out: Replicon EC50 (nM) A156T, Table 2, Huh7 cells, luciferase 96 h.
[11] abbreviates: Huh-7, read-out: Replicon EC50 (nM) A156T, Table 4.
Setting [12] is: Huh-7, 96 h, read-out: Replicon EC50 (nM) D168A, Table 2, Huh7 cells, luciferase 96 h.
[13] abbreviates: Huh-7, read-out: Replicon EC50 (nM) D168A, Table 4.
Where [14] appears, read: Huh-7, 96 h, read-out: Replicon EC50 (nM) R155K, Table 2, Huh7 cells, luciferase 96 h.
[15] abbreviates: Huh-7, read-out: Replicon EC50 (nM) R155K, Table 4.
[16] abbreviates: Huh-7, 96 h, read-out: Replicon EC50 (nM) D168V, Table 2, Huh7 cells, luciferase 96 h.
Setting [17] is: Huh-7, read-out: Replicon EC50 (nM) D168V, Table 4.

Like-named read-outs stand apart in the source and are kept apart here.

Usually EC50 stands for the concentration needed to bring the measured effect to its halfway point.

T3 sequence (Q81495 1033-1214): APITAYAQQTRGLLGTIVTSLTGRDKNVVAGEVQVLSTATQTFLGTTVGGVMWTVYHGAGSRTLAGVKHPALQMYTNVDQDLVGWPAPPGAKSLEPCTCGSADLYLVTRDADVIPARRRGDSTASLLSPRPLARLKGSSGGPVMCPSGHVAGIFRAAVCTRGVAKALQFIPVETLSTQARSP

Regarding `COc1ccc2nc(C(F)(F)F)c(O[C@@H]3C[C@H]4C(=O)N[C@]5(C(=O)NS(=O)(=O)C6CC6)C[C@H]5/C=C\CCCCC[C@H](NC(=O)OC(C)(C)C)C(=O)N4C3)nc2c1` [Compound 18d], the Ki was 157 nM in assay [1] (Table 1); 157 ± 12 nM in assay [1] (Table 3); 13.3 nM in assay [3] (Table 1); 13.3 nM in assay [3] (Table 3); 344 nM at GT3a NS3/4A protease. In addition, the “Ki (Fold change) GT1a D168A NS3/4A Protease” value in assay [2] is “(12) fold”. In addition, on GT3a NS3/4A protease (Table 3), the “Ki (Fold change) GT3a NS3/4A Protease” value is recorded as “(26) fold”. The EC50 turned out to be 1.98 nM in [4] (setting [9]); 1.98 nM in [4] (Huh-7, Table 4); 36.2 nM in [5] (setting [10]); 36.2 nM in [5] (setting [11]); 16.8 nM in assay [6] (setting [12]); 16.8 nM in [6] (setting [13]). For the same compound, the EC50 in assay [7] (setting [14]) is 3.45 nM; in [7] (setting [15]) it was 3.45 nM; in assay [8] (setting [16]), 17.1 nM; in [8] (setting [17]), 17.1 nM. Besides, in assay [5], the “Replicon EC50 (Fold change) A156T” value is listed as “(18) fold”. In addition, the “Replicon EC50 (Fold change) D168A” value in assay [6] is listed as “(8) fold”. Moreover, in assay [7], the “Replicon EC50 (Fold change) R155K” value is “(2) fold”. In addition, the “Replicon EC50 (Fold change) D168V” value in [8] is recorded as “(9) fold”.

On to `COc1ccc2nc(C(F)(F)F)c(O[C@@H]3C[C@H]4C(=O)N[C@]5(C(=O)NS(=O)(=O)C6(C)CC6)C[C@H]5/C=C\CCCCC[C@H](NC(=O)OC(C)(C)C)C(=O)N4C3)nc2c1` [Compound 19d, tert-Butyl ((2R,6S,13aS,14aR,16aS,Z)-2-((7-methoxy-3-(trifluoromethyl)quinoxalin-2-yl)oxy)-14a-(((1-methylcyclopropyl)sulfonyl)carbamoyl)-5,16-dioxo-1,2,3,5,6,7,8,9,10,11,13a,14,14a,15,16,16a-hexadecahydrocyclopropa[e]pyrrolo[1,2-a][1,4]diazacyclopentadecin-6-yl)carbamate], for which the Ki in assay [1] (Table 1) amounted to 118 nM; in assay [1] (Table 3) it was 118 ± 13 nM; in [3] (Table 1), 5.77 nM; in [3] (Table 3) it was 5.77 nM; at GT3a NS3/4A protease it was 231 nM; on GT3a NS3/4A protease (read-out: Ki (nM) GT3a NS3/4A Protease, Table 3) it was 231 ± 74 nM. For the same compound, the “Ki (Fold change) GT1a D168A NS3/4A Protease” value in assay [2] is recorded as “(20) fold”. For the same compound, the “Ki (Fold change) GT3a NS3/4A Protease” value at GT3a NS3/4A protease (Table 3) is “(40) fold”. The EC50 in assay [4] (setting [9]) amounted to 1.52 nM; in assay [4] (Huh-7, Table 4), 1.52 nM; in [5] (setting [10]), 20.5 nM; in assay [5] (setting [11]) it was 20.5 nM; in assay [6] (setting [12]), 8.64 nM; in assay [6] (setting [13]), 8.64 nM. Moreover, the EC50 in assay [7] (setting [14]) amounted to 2.3 nM; in assay [7] (setting [15]), 2.3 nM; in assay [8] (setting [16]), 8.31 nM; in assay [8] (setting [17]), 8.31 nM. In addition, the “Replicon EC50 (Fold change) A156T” value in assay [5] was “(13) fold”. In [6], the “Replicon EC50 (Fold change) D168A” value is “(6) fold”. For the same compound, the “Replicon EC50 (Fold change) R155K” value in [7] is listed as “(2) fold”. Further, the “Replicon EC50 (Fold change) D168V” value in assay [8] is reported as “(5) fold”.

For the compound `COc1ccc2nc(C)c(O[C@@H]3C[C@H]4C(=O)N[C@]5(C(=O)NS(=O)(=O)C6(C)CC6)C[C@H]5/C=C\CCCCC[C@H](NC(=O)OC5CCCC5)C(=O)N4C3)nc2c1` [Compound 23b, Cyclopentyl ((2R,6S,13aS,14aR,16aS,Z)-2-((7-methoxy-3-methylquinoxalin-2-yl)oxy)-14a-(((1-methylcyclopropyl)sulfonyl)carbamoyl)-5,16-dioxo-1,2,3,5,6,7,8,9,10,11,13a,14,14a,15,16,16a-hexadecahydrocyclopropa[e]pyrrolo[1,2-a][1,4]diazacyclopentadecin-6-yl)carbamate], the Ki is 36.3 nM in [1] (Table 1); 36.3 ± 1.8 nM in assay [1] (Table 3); 1.13 nM in assay [3] (Table 1); 1.13 nM in [3] (Table 3); 121 nM on GT3a NS3/4A protease. Besides, the EC50 came out at 0.13 nM in assay [4] (setting [9]); 0.13 nM in assay [4] (Huh-7, Table 4); 3.99 nM in assay [5] (setting [10]); 3.99 nM in [5] (setting [11]); 2.16 nM in assay [6] (setting [12]); 2.16 nM in [6] (setting [13]). The EC50 in assay [7] (setting [14]) and in assay [7] (setting [15]) was 1.09 nM throughout.

On to `COc1ccc2nc(C(C)C)c(O[C@@H]3C[C@H]4C(=O)N[C@]5(C(=O)NS(=O)(=O)C6(C)CC6)C[C@H]5/C=C\CCCCC[C@H](NC(=O)OC5CCCC5)C(=O)N4C3)nc2c1` [Compound 23e, Cyclopentyl ((2R,6S,13aS,14aR,16aS,Z)-2-((3-isopropyl-7-methoxyquinoxalin-2-yl)oxy)-14a-(((1-methylcyclopropyl)sulfonyl)carbamoyl)-5,16-dioxo-1,2,3,5,6,7,8,9,10,11,13a,14,14a,15,16,16a-hexadecahydrocyclopropa[e]pyrrolo[1,2-a][1,4]diazacyclopentadecin-6-yl)carbamate], for which the Ki in [1] (Table 1) was 156 nM; in assay [1] (Table 3), 156 ± 17 nM; in assay [3] (Table 1) it was 1.34 nM; in [3] (Table 3), 1.34 nM. Further, the “Ki (Fold change) GT1a D168A NS3/4A Protease” value in [2] is on record as “(116) fold”. The EC50 in [4] (setting [9]) was determined as 0.59 nM; in [4] (Huh-7, Table 4) it was 0.59 nM; in assay [5] (setting [10]), 27.6 nM; in assay [5] (setting [11]) it was 27.6 nM; in assay [6] (setting [12]), 7.91 nM; in [6] (setting [13]), 7.91 nM. Moreover, the EC50 in assay [7] (setting [14]) turned out to be 6.83 nM; in assay [7] (setting [15]), 6.83 nM; in assay [8] (setting [16]) it was 18.2 nM; in assay [8] (setting [17]) it was 18.2 nM. In addition, the “Replicon EC50 (Fold change) A156T” value in assay [5] was “(47) fold”. The “Replicon EC50 (Fold change) D168A” value in assay [6] is “(13) fold”. The “Replicon EC50 (Fold change) R155K” value in assay [7] was “(12) fold”. Moreover, in [8], the “Replicon EC50 (Fold change) D168V” value is reported as “(31) fold”.
